In patent US20040024215A1, “Benzamide derivatives and their use as apob-100 and mtp inhibitors” (priority 2000, published 2004) one finds melting point and IC50 data, which are given here for eleven compounds.

In series [1] the target is human MTP (Homo sapiens, UniProt P55157). Put plainly: human MTP activity assay (SPA, 3H-triolein transfer between liposomes). As to conditions: 3H-triolein transfer from donor to acceptor liposomes, 25 min incubation at 37° C., streptavidin-SPA beads. The class given is biochemical. On the procedure:
The ability of the compounds of this invention to inhibit human MTP activity is measured by an in vitro assay where MTP tranfers 3H-triolein between phosphatidylcholine liposomes. The specificity of the compounds of the invention is established by comparing the effects on apoB-100 and apoprotein A-1 production. A specificity of at least 100 is preferred.
The human MTP activity assay was established using SPA technology. Donor liposomes were prepared with 3H-triolein and phosphatidylcholine, while acceptor liposomes contained biotinylated phosphatidylethanolamine and phosphatidylcholine. The MTP-mediated 3H-triolein transfer onto acceptor liposomes was allowed by a 25 min incubation at 37° C., and quantified by the addition of streptavidin-SPA beads.

human MTP, sequence (P55157 19-894): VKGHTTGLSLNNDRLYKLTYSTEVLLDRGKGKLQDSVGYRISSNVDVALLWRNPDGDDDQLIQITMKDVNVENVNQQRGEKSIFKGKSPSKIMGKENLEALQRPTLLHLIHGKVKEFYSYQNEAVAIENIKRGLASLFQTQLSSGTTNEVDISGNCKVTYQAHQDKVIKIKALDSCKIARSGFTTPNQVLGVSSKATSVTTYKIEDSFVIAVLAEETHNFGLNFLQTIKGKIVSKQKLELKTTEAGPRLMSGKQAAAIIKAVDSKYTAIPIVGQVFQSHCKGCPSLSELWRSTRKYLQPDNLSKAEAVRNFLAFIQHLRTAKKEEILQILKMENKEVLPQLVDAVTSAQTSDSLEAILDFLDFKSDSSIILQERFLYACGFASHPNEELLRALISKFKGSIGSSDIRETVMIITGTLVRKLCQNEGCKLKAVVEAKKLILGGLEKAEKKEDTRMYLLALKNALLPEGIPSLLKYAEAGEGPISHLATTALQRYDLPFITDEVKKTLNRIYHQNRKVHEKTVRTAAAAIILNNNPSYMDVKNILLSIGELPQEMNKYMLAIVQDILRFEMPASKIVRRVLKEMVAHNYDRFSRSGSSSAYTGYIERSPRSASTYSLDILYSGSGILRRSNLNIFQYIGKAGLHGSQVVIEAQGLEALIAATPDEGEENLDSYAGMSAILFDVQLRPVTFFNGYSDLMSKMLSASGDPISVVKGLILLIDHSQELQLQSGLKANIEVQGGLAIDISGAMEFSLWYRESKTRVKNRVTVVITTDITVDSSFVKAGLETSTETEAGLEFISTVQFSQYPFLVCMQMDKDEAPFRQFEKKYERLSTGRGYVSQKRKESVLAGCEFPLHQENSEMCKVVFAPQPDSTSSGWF
human MTP, sequence (P07237 18-508 partner): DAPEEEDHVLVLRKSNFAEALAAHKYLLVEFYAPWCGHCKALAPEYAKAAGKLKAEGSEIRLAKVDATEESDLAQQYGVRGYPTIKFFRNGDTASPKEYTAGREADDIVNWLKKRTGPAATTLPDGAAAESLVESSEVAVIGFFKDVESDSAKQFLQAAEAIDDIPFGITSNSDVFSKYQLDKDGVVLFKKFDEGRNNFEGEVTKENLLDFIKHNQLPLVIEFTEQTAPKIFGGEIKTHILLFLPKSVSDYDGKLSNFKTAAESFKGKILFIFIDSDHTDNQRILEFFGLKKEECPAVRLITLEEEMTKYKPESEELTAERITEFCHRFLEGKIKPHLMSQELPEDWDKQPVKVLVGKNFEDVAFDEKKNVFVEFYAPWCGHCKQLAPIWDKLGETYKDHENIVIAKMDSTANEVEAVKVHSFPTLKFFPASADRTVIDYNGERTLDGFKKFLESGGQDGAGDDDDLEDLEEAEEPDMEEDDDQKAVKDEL

In turn, `CC(c1ccccc1)N1CCN(c2ccc(NC(=O)c3ccccc3-c3ccc(C(F)(F)F)cc3)cc2)CC1` (stereo not drawn) [Example 1, 4′-Trifluoromethyl-biphenyl-2-carboxylic acid [4-(4-(α-methyl-benzyl)-piperazin-1-yl)-phenyl]-amide] showed a melting point of 194 to 196 °C.
On to `Cc1ccc(C(=O)Nc2ccc(N3CCN(C(C)c4cccc(C#N)c4)CC3)cc2)c(-c2ccc(C(F)(F)F)cc2)c1` (stereo not drawn) [Example 2, 5-Methyl-4′-trifluoromethyl-biphenyl-2-carboxylic acid [4-(4-(3-cyano-α-methyl-benzyl)-piperazin-1-yl)-phenyl]-amide], for which the melting point lay in the range of 192 to 194 °C. Besides, half-maximal inhibition in series [1] (IC50) required 1 nM.
In turn, `CC(c1cccc(C(F)(F)F)c1)N1CCN(c2ccc(NC(=O)c3ccccc3-c3ccc(C(F)(F)F)cc3)cc2)CC1` (stereo not drawn) [Example 4, 4′-Trifluoromethyl-biphenyl-2-carboxylic acid [4-(4-(3-trifluoromethyl-α-methyl-benzyl)-piperazin-1-yl)-phenyl]-amide] had a melting point of 158 to 160 °C.
Consider `N#CC(c1ccccc1)N1CCN(c2ccc(NC(=O)c3ccccc3-c3ccc(C(F)(F)F)cc3)cc2)CC1` (stereo not drawn) [Example 5, 4′-Trifluoromethyl-biphenyl-2-carboxylic acid [4-(4-(α-cyano-benzyl)-piperazin-1-yl)-phenyl]-amide], for which the melting point was determined as 204 °C.
The same measure, in the same setting: to `CC(=O)C(c1ccc(F)cc1)N1CCN(c2ccc(NC(=O)c3ccccc3-c3ccc(C(F)(F)F)cc3)cc2)CC1` (stereo not drawn) [Example 7, 4′-trifluoromethyl-biphenyl-2-carboxylic acid [4-(4-(4-fluoro-α-acetyl-benzyl)-piperazin-1-yl)-phenyl]-amide] belongs 200 to 202 °C.
Compound `O=C(Nc1ccc(N2CCN(C(C(=O)c3ccccc3)c3ccccc3)CC2)cc1)c1ccccc1-c1ccc(C(F)(F)F)cc1` (stereo not drawn) [Example 8, 4′-Trifluoromethyl-biphenyl-2-carboxylic acid [4-(4-(α-benzoyl-benzyl)-piperazin-1-yl)-phenyl]-amide] gave a melting point of 165 °C. For the same compound, it took 40 nM to reach half-maximal inhibition in series [1] (IC50).
`O=C(Nc1ccc(N2CCN(C(c3ccccc3)c3noc(-c4ccccc4)n3)CC2)cc1)c1ccccc1-c1ccc(C(F)(F)F)cc1` (stereo not drawn) [Example 9, 4′-Trifluoromethyl-biphenyl-2-carboxylic acid [4-(4-(α(5-phenyl-[1,2,4]oxadiazol-3-yl)-benzyl)-piperazin-1-yl)-phenyl]-amide] displayed a half-inhibitory concentration (IC50) in series [1] of 5.6 nM.
The compound `O=C(Nc1ccc(N2CCN(C(Cn3cccn3)c3ccccc3)CC2)cc1)c1ccccc1-c1ccc(C(F)(F)F)cc1` (stereo not drawn) [Example 10, 4′-Trifluoromethyl-biphenyl-2-carboxylic acid [4-(4-(α-((pyrazol-1-yl)-methyl)-benzyl)-piperazin-1-yl)-phenyl]-amide] showed an IC50 in series [1] of 157 nM.
As to `COC(=O)C(c1ccccc1)N1CCN(c2ccc(NC(=O)c3ccccc3-c3ccc(C(F)(F)F)cc3)cc2)CC1` (stereo not drawn) [Example 11, 4′-Trifluoromethyl-biphenyl-2-carboxylic acid [4-(4-(α-(methoxcyarbonyl)-benzyl)-piperazin-1-yl)-phenyl]-amide], the melting point was in the range of 130 to 135 °C. This compound also yielded an IC50 in series [1] of 3.2 nM.
Consider `O=C(Nc1ccc(N2CCN(C(C(=O)NCc3ccccn3)c3ccccc3)CC2)cc1)c1ccccc1-c1ccc(C(F)(F)F)cc1` (stereo not drawn) [Example 14, 4′-Trifluoromethyl-biphenyl-2-carboxylic acid [4-(4-(α-((pyridin-2-yl-methyl)-aminocarbonyl)-benzyl)-piperazin-1-yl)-phenyl]-amide], for which the melting point is 139 to 141 °C. The compound also had an IC50 in series [1] of 3 nM.
Compound `N#Cc1cccc(C(c2ccc[nH]2)N2CCN(c3ccc(NC(=O)c4ccccc4-c4ccc(C(F)(F)F)cc4)cc3)CC2)c1` (stereo not drawn) [Example 17, 4′-Trifluoromethyl-biphenyl-2-carboxylic acid [4-(4-(3-cyano-α-(pyrrol-2-yl)-benzyl)-piperazin-1-yl)-phenyl]-amide] displayed a melting point of 202 to 203 °C.

The term melting point denotes the temperature of the solid-liquid transition. Broadly, the IC50 is the point on the concentration scale where inhibition reaches its midpoint.
